Entries after “also recorded” stand apart in the source; their conditions may differ.

The text below walks through data of article PMC7075946 (Frontiers in Immunology, 2020).

The test system of experiment [1] is A/Victoria/210/2009 (H3N2). Put plainly: Splenocyte restimulation, influenza-specific T cell responses (flow cytometry, MSD). Type of experiment: in vivo, BALB/c mice. The settings on record: for influenza-specific T cell response (cytokine production of restimulated splenocytes): 5 days post-secondary vaccination, A/Vic restimulation, vs A/Vic alone.
A further experiment has as its target T1, human TLR8 (Homo sapiens, UniProt Q9NR97).
T1 sequence (Q9NR97 27-1041): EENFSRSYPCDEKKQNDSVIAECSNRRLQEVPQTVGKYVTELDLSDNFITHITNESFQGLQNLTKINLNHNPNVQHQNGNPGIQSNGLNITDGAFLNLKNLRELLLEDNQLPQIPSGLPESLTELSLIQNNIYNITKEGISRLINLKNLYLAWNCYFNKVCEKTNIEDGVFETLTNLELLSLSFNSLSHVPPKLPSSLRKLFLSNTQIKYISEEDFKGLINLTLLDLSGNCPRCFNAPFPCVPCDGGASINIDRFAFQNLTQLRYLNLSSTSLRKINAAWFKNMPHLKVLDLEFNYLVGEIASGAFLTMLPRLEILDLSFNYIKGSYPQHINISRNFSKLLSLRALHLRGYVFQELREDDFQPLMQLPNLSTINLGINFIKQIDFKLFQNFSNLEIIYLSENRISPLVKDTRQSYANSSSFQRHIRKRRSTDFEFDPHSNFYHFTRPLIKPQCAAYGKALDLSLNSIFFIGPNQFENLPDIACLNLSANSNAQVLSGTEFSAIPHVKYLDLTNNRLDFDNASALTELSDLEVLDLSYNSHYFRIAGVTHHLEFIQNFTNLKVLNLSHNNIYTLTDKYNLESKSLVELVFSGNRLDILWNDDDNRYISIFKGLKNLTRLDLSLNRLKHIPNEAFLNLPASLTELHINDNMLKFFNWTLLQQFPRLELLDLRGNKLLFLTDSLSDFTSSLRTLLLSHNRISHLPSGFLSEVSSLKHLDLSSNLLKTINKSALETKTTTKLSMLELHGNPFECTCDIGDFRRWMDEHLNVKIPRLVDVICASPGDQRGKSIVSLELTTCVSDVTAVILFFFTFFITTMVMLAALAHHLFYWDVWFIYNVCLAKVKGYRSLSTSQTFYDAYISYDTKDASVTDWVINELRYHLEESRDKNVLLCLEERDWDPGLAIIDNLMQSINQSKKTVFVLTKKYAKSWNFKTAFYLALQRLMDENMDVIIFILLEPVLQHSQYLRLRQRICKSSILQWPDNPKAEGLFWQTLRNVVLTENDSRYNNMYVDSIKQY
The experiment in a line: cell-based.

Experiment [2] deals with A/Victoria/210/2009 (H3N2). The experiment in a line: ELISA of influenza-specific serum antibody titers in mice given adjuvanted A/Vic vaccine. (ELISA stands for enzyme-linked immunosorbent assay.)
The next experiment deals with human PBMCs. Put plainly: Human PBMC secreted cytokines (Luminex). Type of experiment: cell-based. Conditions: for pro-inflammatory and Th1/Th17 biasing cytokines, concentrations and frequencies: secreted and intracellular cytokine data. As to the method:
Human blood was obtained from healthy adult donors through a University of Montana Institutional Review Board (IRB)-approved protocol. PBMCs were separated from whole blood via density gradient separation using Histopaque 1,077 (Sigma). For PBMC-based assays, cells were resuspended at the desired cell concentration in complete media (RPMI1640+10% FBS+antibiotics). Cells were treated with the indicated compound concentrations and stimulated for 6–24 h depending on the assay as indicated in the figure legends and assays outlined below.
For Luminex assays, supernatants were harvested from treated human PBMCs following 18–24 h of incubation. Supernatants were analyzed using Luminex multiplex panel for analytes IL-1β, IL-12p70, IL-23, IL-6, TNFα, IFNα, and IL-4 (R&D Systems) per the manufacturer's instructions. Multiplex analysis was performed using a Luminex 200 instrument (Luminex Corporation) and analyzed with StarStation2.3 software.
Figure 6 Lipidated imidazoquinolines elicit a Th1/Th17-inducing innate cytokine profile from human PBMCs. PBMCs from 6 healthy, adult blood donors were stimulated with indicated concentrations of TLR7/8 agonists with and without a TLR4 agonist. Secreted cytokines were measured after 24 h via Luminex assay. Supernanant concentrations of (A) IL-12p70, (B) IL-23, (C) IL-1β, and (D) IL-4 were determined. […] Note that for each cytokine measured, the y-axis scale used for the left and right plots is identical for ease of comparison.

The target of a further experiment is T2, human TLR7 (Homo sapiens, UniProt Q9NYK1).
T2 sequence (Q9NYK1 27-1049): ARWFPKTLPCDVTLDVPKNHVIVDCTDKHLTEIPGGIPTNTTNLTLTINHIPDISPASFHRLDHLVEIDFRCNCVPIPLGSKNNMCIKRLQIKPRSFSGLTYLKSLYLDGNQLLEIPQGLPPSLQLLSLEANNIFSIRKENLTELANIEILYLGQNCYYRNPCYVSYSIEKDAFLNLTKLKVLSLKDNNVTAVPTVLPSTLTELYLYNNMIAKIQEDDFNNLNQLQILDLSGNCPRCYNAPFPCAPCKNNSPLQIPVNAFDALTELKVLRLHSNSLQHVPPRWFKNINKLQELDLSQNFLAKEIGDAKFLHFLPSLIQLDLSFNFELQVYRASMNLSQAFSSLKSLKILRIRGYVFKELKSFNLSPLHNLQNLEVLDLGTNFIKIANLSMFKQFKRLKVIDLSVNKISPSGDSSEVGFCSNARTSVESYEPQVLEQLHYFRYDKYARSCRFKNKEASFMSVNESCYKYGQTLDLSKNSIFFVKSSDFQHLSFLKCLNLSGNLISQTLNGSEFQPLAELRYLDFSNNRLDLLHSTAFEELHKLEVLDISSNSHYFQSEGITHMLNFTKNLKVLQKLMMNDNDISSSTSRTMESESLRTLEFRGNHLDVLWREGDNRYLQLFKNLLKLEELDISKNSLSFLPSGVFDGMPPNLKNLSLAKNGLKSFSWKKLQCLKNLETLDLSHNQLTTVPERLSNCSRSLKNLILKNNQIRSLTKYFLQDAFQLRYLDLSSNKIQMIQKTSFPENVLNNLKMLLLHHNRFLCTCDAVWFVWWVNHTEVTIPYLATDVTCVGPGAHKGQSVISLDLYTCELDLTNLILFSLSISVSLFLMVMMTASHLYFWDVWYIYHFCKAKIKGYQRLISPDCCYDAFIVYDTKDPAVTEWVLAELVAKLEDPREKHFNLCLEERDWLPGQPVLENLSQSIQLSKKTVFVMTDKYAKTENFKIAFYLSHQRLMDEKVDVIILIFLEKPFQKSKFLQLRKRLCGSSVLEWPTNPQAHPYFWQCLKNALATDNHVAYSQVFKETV
Put plainly: cell-based.

For `CCCCc1nc2c(N)nc3ccccc3c2n1CCO` [UM-3001], the “influenza-specific T cell response (cytokine production of restimulated splenocytes)” value (shortened to “influenza-specific T cell response”) in experiment [1] is “did not exhibit any significantly increased cytokine production”. Also, the EC50 at human TLR8 was determined as 0.53 µM; at human TLR7, 1.12 µM. Also, the “average fold change of IgG2a vs IgG1 titers over A/Vic alone” value (“average fold change of IgG2a” for short) in experiment [2] (14 days post-primary (14dp1)) is “approximately equal increase in both IgG2a and IgG1 titers”. The IFNα secretion entry with human PBMCs (24 h) is “not”. In addition, the IL-12p70 production entry in the experiment with human PBMCs (with CRX-601 added at a 1:10 ratio, 24 h) was “boosted IL-12p70 production”.

With `CCCCCCCCCCCCCCCC(=O)OC[C@H](COCCOCCOCCOP(=O)(O)OCCn1c(CCCC)nc2c(N)nc3ccccc3c21)OC(=O)CCCCCCCCCCCCCCC` [UM-3003], in experiment [1], the “influenza-specific T cell response” value was “primarily a Th1 influenza-specific response”. Moreover, the “IL-17 response compared to A/Vic antigen alone” value in experiment [1] (challenge study, 10 μg/mouse alone, 5dp2) is listed as “no longer elicited a significantly higher IL-17 response”. Further, it took 52.5 µM to reach a half-maximal effect on human TLR8 (EC50). In experiment [2] (mouse, in vivo), the “average fold change of IgG2a” value was “IgG2a titers were increased more than IgG1 titers”. Also, in the experiment with human PBMCs (24 h), the IFNα secretion result is on record as “secreted; also recorded: most potent inducer of IFNα”. Moreover, in the experiment with human PBMCs (compound alone, 24 h), the IL-1β production entry is reported as “low concentrations”, the IL-12p70 production entry is given as “low levels” and the IL-23 production result was “low concentrations”. Also, the “pro-inflammatory and Th1/Th17 biasing cytokines, concentrations and frequencies” value in the experiment with human PBMCs is “low concentrations and low frequencies”. For the same compound, the concentration giving a half-maximal response (EC50) at human TLR7 was 34.7 µM.

For the compound `CCCCCCCCCCCCCCCC(=O)OC[C@H](COCCOCCOCCOCCOCCOCCOP(=O)(O)OCCn1c(CCCC)nc2c(N)nc3ccccc3c21)OC(=O)CCCCCCCCCCCCCCC` [UM-3004], in experiment [1], the “influenza-specific T cell response” value is recorded as “primarily a Th1 influenza-specific response”. Besides, the half-maximal effective concentration (EC50) was found to be 24.6 µM on human TLR8 and 60.5 µM on human TLR7. Further, in experiment [2] (14 days post-primary (14dp1)), the “average fold change of IgG2a” value is given as “IgG2a titers were increased more than IgG1 titers”. Further, in the experiment with human PBMCs (24 h), the IFNα secretion result is recorded as “secreted”.

`CCCCCCCC/C=C\CCCCCCCC(=O)OC[C@H](COP(=O)(O)OCCc1ccc2c(c1)nc(N)c1nc(CCCC)n(CCO)c12)OC(=O)CCCCCCC/C=C\CCCCCCCC` [UM-3005]: the “influenza-specific T cell response” value in experiment [1] is on record as “primarily a Th1 influenza-specific response”. Besides, in experiment [1] (high dose 10 μg/mouse, with or without a TLR4 agonist, 5dp2), the “frequencies of CD8 IFNγ+ cells” value is given as “significantly increased”. The EC50 was 0.27 µM at human TLR8 and 499 µM on human TLR7. In experiment [2] (mouse, in vivo), the “average fold change of IgG2a” value is listed as “IgG2a titers were increased more than IgG1 titers”. The IFNα secretion entry with human PBMCs (24 h) is reported as “secreted”. For the same compound, the “pro-inflammatory and Th1/Th17 biasing cytokines, concentrations and frequencies” value with human PBMCs was “highest concentrations and frequencies”.

In general, EC50 refers to the concentration at which the effect is half-maximal. A lower EC50 goes with greater potency.
